pIC50: −log10 of the molar value.
Tests used:
[1] = target: T1, CDK2/Cyclin E1 (Homo sapiens, UniProt P24941); assay: HotSpot kinase inhibition assay (radiometric, Histone H1 substrate); type: biochemical; details: 10 μM ATP, read-out: Kinase Assay (CDK2/CCNE): IC50
Experimental: Inhibition of CDK2/CCNE1 activities in the presence of compounds of the present disclosure was evaluated using the HotSpot™ assay (proprietary to Reaction Biology Corporation). In the assay, CDK2/Cyclin E1 (Signalchem C29-18G) catalyzed the transfer of radioactive phosphate to amino acid residues of Histone H1 (Sigma, H5505), which are detected radiometrically.
Reactions contained 20 mM HEPES pH 7.5, 10 mM MgCl2, 1 mM EGTA, 2 mM DTT, 0.02% Brij35, 0.02 mg/mL BSA, 0.1 mM Na3VO4, 1% DMSO, 1.5 nM CDK2/Cyclin E1, 10 μM ATP, and 20 μM Histone H1.
CDK2/Cyclin E1 and Histone H1 were mixed in reaction buffer. To this mixture dose titrations of inhibitors in 100% DMSO were added in by acoustic transfer. The compound mixtures were incubated for 20 minutes, then the kinase reactions were initiated by the addition of a mixture of ATP and ^33P ATP for final concentrations of 10 μM total ATP, 20 μM Histone H1, and 1.5 nM CDK2/Cyclin E1. The reactions were carried out for 120 minutes, then spotted on a P81 ion exchange filter paper, and extensively washed with 0.75% phosphoric acid. The resulting radioactive counts were normalized to yield % activity, plotted against compound concentration, and fit to a four-parameter equation to determine the IC50 for each compound.

[2] = target: T1, CDK2/Cyclin E1; assay: CDK2/Cyclin E1 Caliper LabChip EZ Reader mobility shift assay; type: biochemical; parameters: purchased Eurofins 14-475; details: read-out: Caliper Assay (CDK2/CCNE1): IC50
Outline: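 Mobility-shift kinase assay: compound titrations preincubated 30 min with enzyme and ATP, reaction started with 5-FAM-QSPKKG-CONH2 peptide. Final 2.5 nM CDK2/Cyclin E1, 100 μM ATP, 1.5 μM peptide, HEPES pH 7.5; stopped with EDTA after 100 min. IC50 from four-parameter fit of normalized conversion ratio.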

[3] = tested on: Kuramochi cells; assay: BrdU cell proliferation assay (colorimetric ELISA); type: cell-based; details: read-out: BrdU - KURAMOCHI.1: IC50
Experimental: A BrdU assay was used as a measure of proliferation based on the DNA replication process of proliferating cells. BrdU, a pyrimidine analog, is added to the cell culture and incorporated into the DNA of proliferating cells. The presence of the BrdU analog was then measured through a colorimetric ELISA. After fixation and permeabilization of cells, peroxidase-conjugated antibody recognizing BrdU is added and allowed to incubate, followed by thorough washing to remove unbound antibody. In order to quantify the amount of bound antibody, peroxidase substrate is added and produces a color that can be measured at 450 nm.
On day −1, Kuramochi cells (Sekisui XenoTech JCRB0098) were seeded at 2,000 cells/well in columns 2-12 of a 96 well plate (Corning, CLS3596) in 150 μL media and allowed to adhere overnight at 37 degree with 5% CO2.
On day 0, the source plate was prepared by adding 10 mM compounds and performing 3-fold serial dilutions for a 10-point dose response of each compound. Using a multichannel pipette, 2 μL of the contents of the source plate were stamped into an intermediate plate with 500 μL of RPMI 1640 Media, GlutaMAX Supplement (Life Technologies, 61870127) in each well of a Nunc 96 DeepWell™ plate, non-treated 96 DeepWell plate, 2 mL/well, sterile, natural, 60/cs (Sigma Z717274) and mixed thoroughly. 50 μL from each well of this intermediate plate were added to 4 wells of a 96-well plate with previously seeded Kuramochi cells.
On day 4, the plates were developed using the BrdU ELISA Cell Proliferation Assay according to manufacturer's instructions (Roche, 11647229001). Briefly, BrdU was diluted 1:100 in Gibco®, OptiMEM® and 20 μL/well was added, shaken for 10 minutes at 350 rpm, and then returned to the incubator for 1 hour. Following incubation, the medium was discarded, and the cells were fixed by adding 200 μL of Fix/Denature solution. The anti-BrdU peroxidase antibody was diluted 1:1000 in OptiMEM, added at 100 μL/well, and incubated while shaking (350 rpm) for one hour. Three washes with PBS were performed to remove any unbound antibody, followed by the addition of 100 μL of substrate solution to each well. 25 μL/well of 1M sulfuric acid solution was then added to halt the reaction, and plates were read out using an Envision spectrophotometer (Perkin Elmer) set to read 450 nm absorbance. Background absorbance values from empty wells were subtracted from all samples and then normalized to DMSO treated wells.

SMILES | pIC50 [1] | pIC50 [2] | pIC50 [3]
C[C@H](CNC(=O)C1CN(C(=O)c2cnn(Cc3ccccc3)c2)CC12CN(C(=O)C1CC1(C)C)C2)OCc1ccccc1 (stereo partly drawn) [I-7] | ≥ 6.00 |  | 
COC[C@H]1CCCN(C(=O)[C@@H](NC(=O)[C@@H]2CN(C(=O)c3cncs3)CC23CN(C(=O)[C@H]2CC2(C)C)C3)[C@@H](C)OCC2CCCCC2)C1 [I-196A, (S)—N-((2S,3R)-3-(cyclohexylmethoxy)-1-((S)-3-(methoxymethyl)piperidin-1-yl)-1-oxobutan-2-yl)-2-((S)-2,2-dimethylcyclopropanecarbonyl)-6-(thiazole-5-carbonyl)-2,6-diazaspiro[3.4]octane-8-carboxamide] | ≥ 6.00 | ≥ 8.00 | 
CNC(=O)[C@@H](NC(=O)[C@H]1CN(C(=O)c2cnn(Cc3ccccc3)c2)CC12CN(C(=O)OC(C)(C)C)C2)[C@@H](C)OCc1ccccc1 [I-3B] | 5.00 to 6.00 | < 5.00 | 
Cc1ccc(CNC(=O)[C@@H]2CN(C(=O)c3cnn(Cc4ccccc4)c3)CC23CN(C(=O)[C@H]2CC2(C)C)C3)nn1 [I-252] | ≥ 6.00 | 6.00 to 7.00 | 
CC1(C)C[C@@H]1C(=O)N1CC2(CN(C(=O)c3cnn(Cc4ccccc4)c3)C[C@H]2C(=O)NCc2ccc(C3CCCCC3)nn2)C1 [I-377] | ≥ 6.00 | 6.00 to 7.00 | 
CC1(C)C[C@@H]1C(=O)N1CC2(CN(C(=O)c3cnn(Cc4ccccc4)c3)C[C@H]2C(=O)NCc2ccc(Cl)nn2)C1 [I-376] | 5.00 to 6.00 | 5.00 to 6.00 | 
CC1(C)C[C@@H]1C(=O)N1CC2(CN(C(=O)c3cnn(Cc4ccccc4)c3)C[C@H]2C(=O)N2CC[C@H](OCC3CCCCC3)C2)C1 [I-256] | 5.00 to 6.00 | 6.00 to 7.00 | 
CNC(=O)[C@@H](NC(=O)[C@@H]1CN(C(=O)c2cnn(Cc3ccccc3)c2)CC12CN(C(=O)OC(C)(C)C)C2)[C@@H](C)OCc1ccccc1 [I-3A, tert-butyl (S)-6-(1-benzyl-1H-pyrazole-4-carbonyl)-8-(((2S,3R)-3-(benzyloxy)-1-(methylamino)-1-oxobutan-2-yl)carbamoyl)-2,6-diazaspiro[3.4]octane-2-carboxylate] | ≥ 6.00 | 6.00 to 7.00 | 
CC(C)O[C@H]1C[C@@H](NC(=O)[C@@H]2CN(C(=O)c3cnn(Cc4ccccc4)c3)CC23CN(C(=O)[C@H]2CC2(C)C)C3)C1 [I-234] |  | < 5.00 | < 5.00
Cc1ccc(CNC(=O)[C@@H]2CN(C(=O)c3cncs3)CC23CN(C(=O)[C@H]2CC2(C)C)C3)nn1 [I-378] | 4.00 to 5.00 | < 5.00 | 
COC[C@H]1CCCN(C(=O)[C@@H](NC(=O)[C@@H]2CN(C(=O)c3cncs3)CC23CN(C(=O)[C@H]2CC2(C)C)C3)[C@@H](C)O[C@H](C)C2CCCCC2)C1 [I-367] | ≥ 6.00 | ≥ 8.00 | 
C[C@@H](OCC1CCCCC1)[C@H](NC(=O)[C@@H]1CN(C(=O)c2cnn(Cc3ccccc3)c2)CC12CN(C(=O)[C@H]1CC1(C)C)C2)C(C)(C)O [I-281] | ≥ 6.00 | ≥ 8.00 | 
COC[C@H]1CCCN(C(=O)[C@@H](NC(=O)[C@@H]2CN(C(=O)c3cncs3)CC23CN(C(=O)[C@H]2CC2(C)C)C3)[C@@H](C)O[C@H](C)C2CCCCC2)C1 [I-466] | ≥ 6.00 | ≥ 8.00 | 
CC1(C)C[C@@H]1C(=O)N1CC2(CN(C(=O)c3cnn(Cc4ccccc4)c3)C[C@H]2C(=O)N2CCN(CC3CCCCC3)C(=O)C2)C1 [I-253] | 5.00 to 6.00 | 6.00 to 7.00 | 
C[C@@H](OCc1ccccc1)[C@H](NC(=O)C1CN(C(=O)c2cnn(Cc3ccccc3)c2)CC12CN(C(=O)C1CC1(C)C)C2)C(=O)NCCCCCN (stereo partly drawn) [I-57] |  |  | < 5.00

The next lines start with results.

pIC50 [1] | pIC50 [2] | SMILES | pIC50 [3]
≥ 6.00 | 6.00 to 7.00 | CNC(=O)[C@@H](NC(=O)C1CN(C(=O)c2cnn(Cc3ccncc3)c2)CC12CN(C(=O)C1CC1(C)C)C2)[C@@H](C)OCc1ccccc1 (stereo partly drawn) [I-13] | 
4.00 to 5.00 |  | CNC(=O)[C@@H](NC(=O)[C@@H]1CN(C(=O)c2cnn(Cc3ccccc3)c2)CC12CN(C(=O)C1CC(C)(C)C1)C2)[C@@H](C)OCc1ccccc1 [I-4A] | 
5.00 to 6.00 |  | CNC(=O)[C@H](COCc1ccccc1)NC(=O)C1CN(C(=O)c2cnn(Cc3ccccc3)c2)CC12CN(C(=O)C1CC1(C)C)C2 (stereo partly drawn) [I-1] | 
5.00 to 6.00 | 5.00 to 6.00 | CNC(=O)[C@@H](NC(=O)C1CN(C(=O)c2cnn(C)c2)CC12CN(C(=O)C1CC1(C)C)C2)[C@@H](C)OCc1ccccc1 (stereo partly drawn) [I-14, N-((2S,3R)-3-(benzyloxy)-1-(methylamino)-1-oxobutan-2-yl)-2-(2,2-dimethylcyclopropane-1-carbonyl)-6-(1-methyl-1H-pyrazole-4-carbonyl)-2,6-diazaspiro[3.4]octane-8-carboxamide] | 
≥ 6.00 | 6.00 to 7.00 | CNC(=O)[C@@H](NC(=O)C1CN(C(=O)c2cnn(CC3CCCCC3)c2)CC12CN(C(=O)C1CC1(C)C)C2)[C@@H](C)OCc1ccccc1 (stereo partly drawn) [I-10] | 
< 4.00 |  | CNC(=O)[C@@H](NC(=O)C1CN(C(=O)c2cnn(Cc3ccccc3)c2)CC12CN(C(=O)C1CC1(C)C)C2)[C@@H](C)OCc1cccc(C#N)c1 (stereo partly drawn) [I-6] | 
4.00 to 5.00 |  | CNC(=O)[C@@H](NC(=O)C1CN(C(=O)c2cnn(Cc3ccccc3)c2)CC12CN(C(=O)C1CC1(C)C)C2)[C@@H](C)OC (stereo partly drawn) [I-2, 6-(1-benzyl-1H-pyrazole-4-carbonyl)-2-(2,2-dimethylcyclopropane-1-carbonyl)-N-((2S,3R)-3-methoxy-1-(methylamino)-1-oxobutan-2-yl)-2,6-diazaspiro[3.4]octane-8-carboxamide] | 
≥ 6.00 |  | CNC(=O)[C@@H](NC(=O)[C@@H]1CN(C(=O)c2cn[nH]c2)CC12CN(C(=O)C1CC1(C)C)C2)[C@@H](C)OCc1ccccc1 (stereo partly drawn) [I-5A] | 
4.00 to 5.00 |  | CNC(=O)[C@@H](NC(=O)C1CN(C(=O)c2cnn(Cc3ccccc3)c2)CC12CN(C(=O)C1CC1(C)C)C2)[C@@H](C)O (stereo partly drawn) [I-88 mixture] | 
4.00 to 5.00 | 5.00 to 6.00 | CNC(=O)[C@@H](NC(=O)[C@H]1CN(C(=O)c2cnn(Cc3ccccc3)c2)CC12CN(C(=O)CC1CC1)C2)[C@@H](C)OCc1ccccc1 [I-8B] | 
5.00 to 6.00 |  | CNC(=O)[C@@H](NC(=O)[C@H]1CN(C(=O)c2cn[nH]c2)CC12CN(C(=O)C1CC1(C)C)C2)[C@@H](C)OCc1ccccc1 (stereo partly drawn) [I-5B] | 
≥ 6.00 | 6.00 to 7.00 | CNC(=O)[C@@H](NC(=O)C1CN(C(=O)c2cnn(Cc3ccccn3)c2)CC12CN(C(=O)C1CC1(C)C)C2)[C@@H](C)OCc1ccccc1 (stereo partly drawn) [I-11] | 
≥ 6.00 |  | CNC(=O)[C@@H](NC(=O)C1CN(C(=O)c2cnn(Cc3ccccc3)c2)CC12CN(C(=O)C1CC1(C)C)C2)[C@@H](C)OCC1CCCCC1 (mixture of isomers) [I-12] | 
5.00 to 6.00 | 5.00 to 6.00 | CNC(=O)[C@@H](NC(=O)[C@@H]1CN(C(=O)c2cnn(Cc3ccccc3)c2)CC12CN(C(=O)CC1CC1)C2)[C@@H](C)OCc1ccccc1 [I-8A] | 
 | < 5.00 | CNC(=O)[C@@H](NC(=O)[C@H]1CN(Cc2cnn(C)c2)CC12CN(C(=O)[C@H]1CC1(C)C)C2)[C@@H](C)OCc1ccccc1 [I-47B] | < 5.00
< 4.00 |  | CNC(=O)[C@@H](NC(=O)[C@H]1CN(C(=O)c2cnn(Cc3ccccc3)c2)CC12CN(C(=O)C1CC(C)(C)C1)C2)[C@@H](C)OCc1ccccc1 [I-4B] | 
